Experimental data from patent US20100168038A1, “USE OF COMPOUNDS IN COMBINATION WITH GAMMA-IRRADIATION FOR THE TREATMENT OF CANCER” (priority 2006, published 2010).
Values joined by “and” are separate entries in the source; they are usually repeats but may differ in a detail not shown here. Identical values can stand only once. Residues, ends and D or L forms follow the SMILES beside them.

How the values were obtained:
[1] = system: EL-4 lymphoma cells; assay: Tumor growth of EL-4 lymphoma in C57Bl/6 mice, compound with gamma-irradiation; assay type: in vivo, mouse; details: for tumor volume: single mouse; for tumor volume, mean: group mean
Source text: Tumor Growth Experiments. Tumor cells were washed in PBS and resuspended in a volume of 200 micro-l per inoculate. The cells were then inoculated into the right flank at 10^6 per mouse and growth of the tumor was monitored by measurement two times per week. The initiation of anti-tumor treatment of the mice was to some extent individualized according to when tumor growth started in each mouse. The mice were irradiated with 4 Gy prior to tumor inoculation in order to inhibit anti-tumor immune responses. The tumor volume was calculated as the mean volume in mice with tumors growth, according to (a1×a2×a3)/2 (the numbers ai denote tumor diameter, width and depth). The time of first palpation varied between different mice, although the general pattern of growth was similar in virtually all of the mice. In most diagrams a log-scale is used to better visualize the therapeutic effects against small tumors, i.e. the presence of complete rejections. For inhibition of TPPII in vivo we made intraperitoneal injections with 13.8 mg per kg of body weight (14 micro-l of a 50 mM solution/mouse) of the Subtilisin inhibitor Z-Gly-Leu-Ala-OH (Z-GLA-OH, Bachem, Weil am Rhein, Germany) twice per week, diluted into 200 micro-l PBS. All gamma-irradiations were full body exposures.
Table 3 contains further in vivo data, showing tumor volume in mm^3, in groups of 7-8 mice, according to the EL-4 tumor model described above. 1.000.000 EL-4 lymphoma cells were inoculated subcutaneously at day 0. No palpable tumors were observed until day 22. At each treatment (twice weekly) mice with palpable tumors were given 400 Rads irradiation alone, or in combination with 14 micro-l 50 mM solution of Z-GLA-OH. Mice with no palpable tumors were not treated, i.e. in mice with rejected tumors, treatment was terminated and the mice were kept under observation.
All mice were 400 Rad (1 Gy=100 Rad) gamma-irradiated at day 0, a standard procedure to improve tumor acceptance. The compound was inoculated intraperitoneally, whereas tumors were always inoculated subcutaneously.

[2] = system: HeLa cells (human cervical carcinoma); assay: Tumor growth of HeLa cells in CB.17 SCID mice, Z-GLA-OH with gamma-irradiation; assay type: in vivo; details: Z-GLA-OH + gamma-irradiation 1.5 Gy/dose
[3] = EL-4, irradiation + Z-GLA-OH, day 26
[4] = EL-4, irradiation + Z-GLA-OH, day 30
[5] = EL-4, irradiation + Z-GLA-OH, day 34
[6] = EL-4, irradiation + Z-GLA-OH, day 37
[7] = EL-4, irradiation + Z-GLA-OH, day 41
[8] = EL-4, irradiation + Z-GLA-OH, day 44
[9] = EL-4, irradiation + Z-GLA-OH, day 48
[10] = EL-4, irradiation + Z-GLA-OH, day 55
[11] = EL-4, irradiation + Z-GLA-OH, day 62
[12] = EL-4, irradiation + Z-GLA-OH, day 65
[13] = EL-4, irradiation + Z-GLA-OH, day 72
[14] = EL-4, irradiation + Z-GLA-OH, day 78

CC(C)C[C@H](NC(=O)CNC(=O)OCc1ccccc1)C(=O)N[C@@H](C)C(=O)O [Z-GLA-OH, Z-Gly-Leu-Ala-OH] (HELM PEPTIDE1{[O=C(OCc1ccccc1)[*:2]].G.L.A}$$$$V2.0)
period of observation without re-growth of tumors after treatment was cancelled ([1]; EL-4, after 4 Gy + Z-GLA-OH 13.8 mg/kg): over 3 months | tumor volume ([1]; EL-4, irradiation 400 Rads + Z-GLA-OH 14 micro-l 50 mM i.p., day 22): 6.00 mm^3 and 0.50 mm^3 (5×) and 4.00 mm^3 | tumor volume, mean ([1]; EL-4, irradiation + Z-GLA-OH, day 22): 2.06 mm^3 | tumor volume, mean [1, 3]: 84.69 mm^3 | tumor volume [1, 3]: 108.00 mm^3 (3×) and 126.00 mm^3 and 75.00 mm^3 and 50.00 mm^3 and 40.00 mm^3 and 62.50 mm^3 | tumor volume, mean [1, 4]: 49.94 mm^3 | tumor volume [1, 4]: 108.00 mm^3 (2×) and 13.50 mm^3 and 18.00 mm^3 and 24.00 mm^3 and 32.00 mm^3 and 48.00 mm^3 (2×) | tumor volume, mean [1, 5]: 20.75 mm^3 | tumor volume [1, 5]: 10.00 mm^3 and 0.50 mm^3 and 62.50 mm^3 and 24.00 mm^3 (2×) and 13.50 mm^3 (2×) and 18.00 mm^3 | tumor volume, mean [1, 6]: 12.69 mm^3 | tumor volume [1, 6]: 8.00 mm^3 and 18.00 mm^3 and 12.00 mm^3 and 6.00 mm^3 (2×) and 27.00 mm^3 and 24.00 mm^3 and 0.50 mm^3 | tumor volume, mean [1, 7]: 3.88 mm^3 | tumor volume [1, 7]: 0.50 mm^3 (3×) and 4.00 mm^3 (4×) and 13.50 mm^3 | tumor volume, mean [1, 8]: 1.14 mm^3 | tumor volume [1, 8]: 0.50 mm^3 (4×) and 0.10 mm^3 and 2.00 mm^3 and 1.00 mm^3 and 4.00 mm^3 | tumor volume, mean [1, 9]: 0.18 mm^3 | tumor volume [1, 9]: 0.10 mm^3 (4×) and 0.50 mm^3 (2×) and 0.00 mm^3 (2×) | tumor volume, mean [1, 10]: 0.07 mm^3 | tumor volume [1, 10]: 0.00 mm^3 (6×) and 0.10 mm^3 and 0.50 mm^3 | tumor volume, mean [1, 11]: 0.01 mm^3 | tumor volume [1, 11]: 0.10 mm^3 and 0.00 mm^3 (7×) | tumor volume, mean [1, 12]: 0.01 mm^3 | tumor volume [1, 12]: 0.00 mm^3 | tumor volume, mean [1, 13]: 0.01 mm^3 | tumor volume [1, 13]: 0.10 mm^3 and 0.00 mm^3 (7×) | tumor volume, mean [1, 14]: 0.00 mm^3 | tumor volume [1, 14]: 0.00 mm^3 | tumor response, summary of Table 3 ([1]; EL-4, 400 Rads irradiation + 14 micro-l 50 mM Z-GLA-OH at each treatment (twice weekly)): complete rejection of established tumors | mice with tumor regression (partial effects) ([1]; EL-4, Z-GLA-OH 3.5 mg/kg and lower doses + 3 Gy gamma-irradiation doses): 2 out of 4 | mice with complete tumor rejection ([1]; EL-4, Z-GLA-OH 6.9 mg/kg + 3 Gy gamma-irradiation doses): 3 out of 4 | mice with complete rejection ([1]; EL-4, gamma-irradiation doses of 1 Gy + Z-GLA-OH injection): 1 out of 4 | mice with complete rejection ([1]; EL-4, gamma-irradiation doses of 2 Gy + Z-GLA-OH injection): 2 out of 5 | tumor response ([1]; EL-4, gamma-irradiation doses of 3 Gy + Z-GLA-OH injection): complete regression | tumor response ([1]; established EL-4 tumors, C57Bl/6 mice, 3-4 doses of 400 Rad (one dose/week) + Z-GLA-OH 13.8 mg/kg twice weekly, all mice tested): complete tumor regression | tumor response [2]: strong tumor regression
